Assay results published in ChEMBL document CHEMBL5053527, “Design, synthesis, and pharmacological profiling of cannabinoid 1 receptor allosteric modulators: Preclinical efficacy of C2-group GAT211 congeners for reducing intraocular pressure” (Bioorg Med Chem, 2021).
pEC50, pKi: −log10 of the molar value. Converted amounts (≈) assume the structure as drawn. The source made the active and inactive calls. The calls are words filed in the database; no cut-off is given here.

Assays:
[1] = biological target: T1, Cannabinoid receptor 1 (Homo sapiens, UniProt P21554); experiment: Positive allosteric modulation of human CB1 receptor expressed in CHO-K1 cells assessed as beta-arrestin 2 recruitment incubated for 90 mins by PathHunter chemiluminescence based assay; type: cell-based
[2] = biological target: T1, Cannabinoid receptor 1; experiment: Positive allosteric modulation of human CB1 receptor expressed in CHO-K1 cells assessed as beta-arrestin 2 […] by measuring maximum efficacy incubated for 90 mins by PathHunter chemiluminescence based assay relative to control; type: cell-based
[3] = biological target: T1, Cannabinoid receptor 1; experiment: Positive allosteric modulation of human CB1 receptor expressed in CHO-K1 cells assessed as inhibition of forskolin-induced cAMP production incubated for 30 mins in presence of forskolin by HitHunter chemiluminescence based assay; type: functional, cell-based
[4] = biological target: T1, Cannabinoid receptor 1; experiment: Positive allosteric modulation of human CB1 receptor expressed in CHO-K1 cells assessed as inhibition of forskolin-induced cAMP production by measuring maximum efficacy incubated for 30 mins in presence of forskolin by HitHunter chemiluminescence based assay relative to control; type: functional, cell-based
[5] = biological target: T1, Cannabinoid receptor 1; experiment: Agonist activity at human CB1 receptor expressed in CHO cell membranes assessed as increase in [35S]GTPgammaS binding by measuring maximum efficacy incubated for 30 mins by liquid scintillation spectrometry analysis relative to control; type: functional; details: CHO-K1, Cell membrane, filed as agonist
[6] = biological target: T1, Cannabinoid receptor 1; experiment: Displacement of [3H]CP55940 from human CB1 receptor expressed in CHO-K1 cell membrane assessed as maximum efficacy incubated for 60 mins by liquid scintillation spectrometry analysis relative to control; type: cell membranes
[7] = physchem; details: PBS buffer, pH 7.4
[8] = in vitro; details: human, liver microsomes
[9] = in vitro; details: rat, liver microsomes
[10] = in vitro; details: human, liver microsomes; remark: listed apart in the source
[11] = in vitro; details: rat, liver microsomes; remark: listed apart in the source
[12] = biological target: T1, Cannabinoid receptor 1; experiment: Agonist activity at human CB1 receptor expressed in CHO cell membranes assessed as increase in [35S]GTPgammaS binding incubated for 30 mins by liquid scintillation spectrometry analysis; type: functional, CHO-K1, Cell membrane
[13] = test system: Mus musculus; experiment: Antiglaucoma activity in normotensive C57BL/6 mouse model assessed as reduction in intraocular pressure at 5 mM administered topically measured after 1 hr; type: functional
[14] = biological target: T1, Cannabinoid receptor 1; experiment: Displacement of [3H]CP55940 from human CB1 receptor expressed in CHO-K1 cell membranes incubated for 60 mins by liquid scintillation spectrometry analysis; parameters: species or system Cell membrane
[15] = biological target: T1, Cannabinoid receptor 1; experiment: Agonist activity at human CB1 receptor expressed in CHO cell membranes assessed as increase in [35S]GTPgammaS binding by measuring maximum efficacy incubated for 30 mins in presence of CP55940 by liquid scintillation spectrometry analysis relative to control; type: functional; details: CHO-K1, Cell membrane, filed as agonist
[16] = biological target: Cannabinoid receptor 1 (Mus musculus) (UniProt P47746); experiment: Agonist activity at CB1 receptor in C57BL/6 mouse hippocampal neurons assessed as inhibition of excitatory postsynaptic current at 1 uM at -70 mV holding membrane potential by whole cell patch clamp assay; type: functional, tissue-based; details: Neuron, filed as agonist
[17] = biological target: Cannabinoid receptor 1 (Mus musculus) (UniProt P47746); experiment: Positive allosteric modulation of CB1 receptor in C57BL/6 mouse hippocampal neurons assessed as decrease in inhibition of DSE recovery rate at 1 uM and holding potential at 0 mV for 10 secs followed by DSE stimulation; type: tissue-based; details: Neuron, filed as positive allosteric modulator, time 10.0 sec
[18] = biological target: Cannabinoid receptor 1 (Mus musculus) (UniProt P47746); experiment: Positive allosteric modulation of CB1 receptor in MF1 mouse vas deferens assessed as inhibition of AEA-induced electrically evoked vas deferens contraction by measuring maximum efficacy incubated for 13 mins followed by electrical stimulation for 2 mins (Rvb= […]+/- […]% ); type: tissue-based; details: filed as positive allosteric modulator
[19] = biological target: Cannabinoid receptor 1 (Mus musculus, UniProt P47746); experiment: Positive allosteric modulation of CB1 receptor in MF1 mouse vas deferens assessed as inhibition of AEA-induced electrically evoked vas deferens contraction incubated for 13 mins followed by electrical stimulation for 2 mins (Rvb= 460 nM); type: tissue-based
[20] = biological target: T1, Cannabinoid receptor 1; experiment: Potency index, ratio of GAT211 EC50 to test compound EC50 for positive allosteric modulation of human CB1 receptor expressed in CHO-K1 cells assessed as inhibition of forskolin-induced cAMP production incubated for 30 mins in presence of CP55940 by HitHunter chemiluminescence based assay; type: functional, cell-based
[21] = filed as positive allosteric modulator

T1 sequence (P21554 whole entry): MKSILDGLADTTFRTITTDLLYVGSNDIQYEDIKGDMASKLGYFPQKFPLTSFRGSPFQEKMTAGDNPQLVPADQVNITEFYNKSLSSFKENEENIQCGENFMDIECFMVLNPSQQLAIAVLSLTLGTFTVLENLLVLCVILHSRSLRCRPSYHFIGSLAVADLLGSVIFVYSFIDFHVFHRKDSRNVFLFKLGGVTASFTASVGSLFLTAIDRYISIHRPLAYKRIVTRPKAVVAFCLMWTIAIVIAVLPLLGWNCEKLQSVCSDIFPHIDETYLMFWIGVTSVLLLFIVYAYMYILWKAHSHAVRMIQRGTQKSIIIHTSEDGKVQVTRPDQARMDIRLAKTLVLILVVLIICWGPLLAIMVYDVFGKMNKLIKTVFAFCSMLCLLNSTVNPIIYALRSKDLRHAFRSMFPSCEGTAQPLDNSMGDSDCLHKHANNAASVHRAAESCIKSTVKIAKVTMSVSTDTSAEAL
Sequence of Cannabinoid receptor 1 (Mus musculus) (P47746 whole entry): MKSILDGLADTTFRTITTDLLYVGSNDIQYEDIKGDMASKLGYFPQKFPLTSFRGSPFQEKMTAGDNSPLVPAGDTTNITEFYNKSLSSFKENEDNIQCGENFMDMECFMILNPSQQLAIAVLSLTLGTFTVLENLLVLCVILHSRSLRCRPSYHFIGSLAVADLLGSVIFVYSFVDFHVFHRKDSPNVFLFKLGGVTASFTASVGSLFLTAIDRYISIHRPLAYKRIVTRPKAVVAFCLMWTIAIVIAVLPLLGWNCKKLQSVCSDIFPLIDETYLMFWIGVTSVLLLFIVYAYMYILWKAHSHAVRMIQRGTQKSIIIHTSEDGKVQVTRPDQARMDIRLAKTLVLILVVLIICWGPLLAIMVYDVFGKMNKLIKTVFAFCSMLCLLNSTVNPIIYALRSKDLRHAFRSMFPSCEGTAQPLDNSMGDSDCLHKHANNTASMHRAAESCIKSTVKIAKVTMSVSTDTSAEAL
Sequence of Cannabinoid receptor 1 (Mus musculus, UniProt P47746) (P47746 whole entry): as above

Row | SMILES | pEC50 [1] | Emax [2] [%] | pEC50 [3] | Emax [4, 21] [%] | other results
1 | O=[N+]([O-])CC(c1ccccc1)c1c(-c2c[nH]c3ccccc23)[nH]c2ccccc12 (stereo unspecified) | < 5.00 | 1.3 | < 5.00 |  | Emax [4]: -71%
2 | O=[N+]([O-])CC(c1ccccc1)c1c(-c2cc3ccccc3s2)[nH]c2ccccc12 (stereo unspecified) | < 5.00 | 13 | 6.82 | 130 | 
3 | CC(C)(C)OC(=O)n1c(-c2[nH]c3ccccc3c2C(C[N+](=O)[O-])c2ccccc2)cc2ccccc21 (stereo unspecified) | < 5.00 | 0 | < 5.00 |  | Emax [4]: 0%
4 | CCCCCCC(C)(C)c1ccc([C@@H]2C[C@H](O)CC[C@H]2CCCO)c(O)c1 |  |  |  |  | Emax [5]: 42%; Emax [6]: -100%
5 | O=[N+]([O-])CC(c1ccccc1)c1c(-c2nccs2)[nH]c2ccccc12 (stereo unspecified) | < 5.00 | 2.8 | 6.10 | 72 | 
6 | O=[N+]([O-])CC(c1ccccc1)c1c(-c2ccn[nH]2)[nH]c2ccccc12 (stereo in doubt; 15g) [listing 1 of 2 here] |  | 0 |  |  | Emax [4]: 0%
7 | O=[N+]([O-])CC(c1ccccc1)c1c(-c2ccc[nH]2)[nH]c2ccccc12 (stereo unspecified) | < 5.00 | 25 | 6.66 | 110 | 
8 | O=[N+]([O-])CC(c1ccccc1)c1c(-c2cc[nH]c2)[nH]c2ccccc12 (stereo unspecified) | < 5.00 | -1.5 | < 5.00 | 52 | 
9 | O=[N+]([O-])CC(c1ccccc1)c1c(-c2cc3ccccc3o2)[nH]c2ccccc12 (stereo unspecified) | < 5.00 | 9.5 | 6.26 | 96 | 
10 | O=[N+]([O-])CC(c1ccccc1)c1c(-c2cn[nH]c2)[nH]c2ccccc12 (stereo unspecified) | < 5.00 | 3.5 | < 5.00 | 110 | 
11 | O=[N+]([O-])CC(c1ccccc1)c1c(-c2ccco2)[nH]c2ccccc12 (stereo unspecified) | 5.68 | 11 | 6.89 | 140 | 
12 | O=[N+]([O-])CC(c1ccccc1)c1c(-c2cc3ccccc3[nH]2)[nH]c2ccccc12 (stereo unspecified) | < 5.00 | 3.3 | < 5.00 | 110 | 
13 | O=[N+]([O-])CC(c1ccccc1)c1c(-c2cccs2)[nH]c2ccccc12 (stereo unspecified) | 6.96 |  | 6.77 | 85 | Emax [2, 21]: 57%; solubility kinetic at 2 h, 200 µM [7]: 1.56 µM (≈ 0.544 µg/mL); microsomal CLint at 0.25 h, 1 µM [8]: 115 µL/min/mg; microsomal CLint at 0.25 h, 1 µM [9]: 595 µL/min/mg; half-life at 0.25 h, 1 µM [10]: 20 min; half-life at 0.25 h, 1 µM [11]: 3.88 min
14 | O=[N+]([O-])CC(c1ccccc1)c1c(-c2ccccc2)[nH]c2ccccc12 (stereo unspecified) |  |  |  |  | Emax [6, 21]: 57%
15 | O=[N+]([O-])CC(c1ccccc1)c1c(-c2ccn[nH]2)[nH]c2ccccc12 (stereo in doubt; 15g) [listing 2 of 2 here] | < 5.00 |  | < 5.00 |  | 
16 | O=[N+]([O-])CC(c1ccccc1)c1c(-c2ccsc2)[nH]c2ccccc12 (stereo unspecified) | 6.49 |  | 7.06 | 98 | Emax [2, 21]: 46%; pEC50 [12]: 6.89; Activity [13]: 3.2 mmHg; solubility kinetic at 2 h, 200 µM [7]: 1.56 µM (≈ 0.544 µg/mL); pKi [14]: 7.37; microsomal CLint at 0.25 h, 1 µM [8]: 111 µL/min/mg; Emax [15]: 46%; microsomal CLint at 0.25 h, 1 µM [9]: 489 µL/min/mg; inhibition [16]: Active; Emax [5]: 49%; Emax [6, 21]: 100%; Activity [17]: Active; Emax [18]: 62%; pEC50 [19]: 7.52; Ratio EC50 [20]: 3; half-life at 0.25 h, 1 µM [10]: 20.8 min; half-life at 0.25 h, 1 µM [11]: 4.72 min
17 | O=[N+]([O-])CC(c1ccccc1)c1c(-c2ccn[nH]2)[nH]c2ccccc12 (stereo in doubt; 15h) [listing 1 of 2 here] |  | 0.76 |  | 120 | 
18 | O=[N+]([O-])CC(c1ccccc1)c1c(-c2ccoc2)[nH]c2ccccc12 (stereo unspecified) | < 6.00 | 18 | 7.00 | 120 | 
19 | CC(C)[Si](C(C)C)(C(C)C)n1ccc(-c2[nH]c3ccccc3c2C(C[N+](=O)[O-])c2ccccc2)c1 (stereo unspecified) | < 5.00 | -4.5 | 6.01 | 120 | 
20 | O=[N+]([O-])CC(c1ccccc1)c1c(-c2ccn[nH]2)[nH]c2ccccc12 (stereo in doubt; 15h) [listing 2 of 2 here] |  |  |  |  | pEC50 ([1]; cho-k1): < 5.00; pEC50 ([3]; cho-k1): < 5.00
21 | O=[N+]([O-])CC(c1ccccc1)c1c(-c2cncs2)[nH]c2ccccc12 (stereo unspecified) | < 5.00 | 5.1 | 5.82 | 100 | 
22 | O=[N+]([O-])CC(c1ccccc1)c1c(-c2cscn2)[nH]c2ccccc12 (stereo unspecified) | < 5.00 |  | 5.92 |  | Emax [2, 21]: 45%; Emax [4]: 38%
